Source: the SangsterLogP compilation

Experiment: method code SF-AS, from DOI: 10.1515/znb-1972-0211, PMID: 4401834
Conditions: pH 7.0

SMILES	logD
CCOC(=O)/C(C#N)=N\Nc1cc(Cl)c(Cl)cc1Cl	5.21
CCOC(=O)C(C#N)=NNc1cc(Cl)c(Cl)c(Cl)c1	5.03
CC(=O)C(C#N)=NNc1cccc(Cl)c1	3.91
CCOC(=O)/C(C#N)=N\Nc1cccc(Cl)c1	3.94
CCOC(=O)C(C#N)=NNc1ccccc1Cl	3.38
COC(=O)C(C#N)=NNc1ccccc1C(F)(F)F	3.72
CCOC(=O)/C(C#N)=N\Nc1cc(Cl)cc(Cl)c1	3.82
COC(=O)C(C#N)=NNc1ccccc1	2.59
CC(=O)C(C#N)=NNc1ccccc1Cl	4.01
CCOC(=O)C(C#N)=NNc1cc(C(F)(F)F)ccc1Cl	4.45
COC(=O)/C(C#N)=N\Nc1cc(Cl)c(Cl)c(Cl)c1	5.22
COC(=O)/C(C#N)=N\Nc1cc(Cl)cc(Cl)c1	4.5
COC(=O)/C(C#N)=N\Nc1cc(C(F)(F)F)cc(C(F)(F)F)c1	5.02
CC(=O)C(C#N)=NNc1cc(Cl)cc(Cl)c1	4.68
CC(=O)C(C#N)=NNc1ccc(Cl)cc1C	4.28
COC(=O)C(C#N)=NNc1cc(C#N)ccc1C#N	2.81
COC(=O)/C(C#N)=N\Nc1ccc(SC(F)(F)F)cc1	4.27
CC(=O)C(C#N)=NNc1ccc(Cl)cc1	4.13
COC(=O)/C(C#N)=N\Nc1cccc(Cl)c1	3.56
COC(=O)C(C#N)=NNc1cc(C(F)(F)F)ccc1Cl	4.42

Now from value to molecule:

logD	SMILES
3.79	COC(=O)C(C#N)=NNc1ccc(C(F)(F)F)cc1
5.44	CC(C)(C)C(=O)C(C#N)=NNc1cc(C(F)(F)F)cc(C(F)(F)F)c1
4.86	CCOC(=O)/C(C#N)=N\Nc1ccc(Cl)c(C(F)(F)F)c1
3.78	COC(=O)C(C#N)=NNc1cccc(C(F)(F)F)c1
5.31	CC(=O)C(C#N)=NNc1ccc2c(c1)OC(F)(F)C(F)(F)O2
4.22	CCS(=O)(=O)c1ccc(C(F)(F)F)cc1NN=C(C#N)C(C)=O
5.04	CC(=O)C(C#N)=NNc1ccc(SC(F)(F)F)cc1
4.31	Cc1cc(Cl)ccc1NN=C(C#N)C(=O)C(C)(C)C
4.22	COC(=O)C(C#N)=NNc1ccc(S(=O)(=O)C(F)(F)F)cc1
4.96	CC(C)(C)C(=O)C(C#N)=NNc1ccc2c(c1)OC(F)(F)C(F)(F)O2
4.86	COC(=O)C(C#N)=NNc1ccc2c(c1)OC(F)(F)C(F)(F)O2
5.67	CC(C)(C)C(=O)C(C#N)=NNc1ccc(Cl)cc1C(F)(F)F
5.86	CC(C)(C)C(=O)C(C#N)=NNc1cc(Cl)c(Cl)cc1Cl
4.62	CC(C)(C)C(=O)C(C#N)=NNc1cccc(Cl)c1
4.56	CC(=O)C(C#N)=NNc1ccc(Cl)c(Cl)c1

Experiment: method code SF, from DOI: 10.1515/znb-1972-0211, PMID: 4401834
Conditions: pH 7.0

logD	SMILES
5.15	COC(=O)/C(C#N)=N\Nc1cc(Cl)c(Cl)cc1Cl
